The values below come from EPA's ToxRefDB 2.

A value given as a limit tells only on which side of the number the result lay.

The subject of data set [1] is rat. The following applies: Subchronic oral toxicity in rodents, wistar, Feed, dose end: 13 week, group: systemic, systemic / clinical chemistry / alanine aminotransferase (alt/sgpt) / alanine aminotransferase (alt/sgpt) + systemic / clinical chemistry / ….
Data set [2] deals with rat. The following applies: Combined chronic toxicity/carcinogenicity, wistar, Oral, Feed, dose end: 120 week, group: systemic.
In data set [3] the test system is rat. The following applies: Subchronic oral toxicity in rodents, sprague dawley, Gavage/Intubation, dose end: 13 week, group: systemic.
In data set [4] the test system is rat. The following applies: Multigenerational reproductive toxicity study, sprague dawley, Oral, Gavage/Intubation, dose end: 2 generation.
Data set [5] concerns mouse. The following applies: Carcinogenicity, cd1, Dermal, Topical, dose end: 18 month, group: systemic.
Data set [6] deals with rat. The following applies: Subchronic dermal toxicity, sprague dawley, Topical, dose end: 90 day, group: systemic.
In data set [7] the test system is rat. The following applies: Combined chronic toxicity/carcinogenicity, sprague dawley, Oral, Gavage/Intubation, dose end: 104 week, group: systemic.
Another data set relates to primate. The following applies: Chronic toxicity, macaque, Oral, Gavage/Intubation, dose end: 52 week, group: systemic.
Data set [8] relates to rat. The following applies: Subchronic oral toxicity in rodents, sprague dawley, Water, dose end: 90 day, group: systemic.
Data set [9] has as its system mouse. The following applies: Combined chronic toxicity/carcinogenicity, b6c3f1, Oral, Water, dose end: 52 week, group: systemic.
Data set [10] relates to rat. The following applies: Multigenerational reproductive toxicity study, wistar, Oral, Feed, dose end: 2 generation.
Data set [11] deals with mouse. The following applies: Subchronic oral toxicity in rodents, cd1, Feed, dose end: 13 week, group: systemic.
Data set [12] has as its system rat. The following applies: Subchronic oral toxicity in rodents, wistar, Feed, dose end: 14 week, group: systemic.
The test system of data set [13] is dog. The following applies: Chronic toxicity; beagle; Oral; Feed; dose end: 52 week; group: systemic; systemic / organ weight / adrenal gland / relative to body weight + systemic / organ weight / testes / relative to body weight + systemic / ….
The subject of data set [14] is mouse. The following applies: Carcinogenicity, cd1, Oral, Feed, dose end: 18 month, group: systemic.
Data set [15] concerns dog. The following applies: Subchronic oral toxicity in nonrodent, beagle, Feed, dose end: 14 week, group: systemic.
[16] abbreviates: systemic / clinical chemistry / alanine aminotransferase (alt/sgpt) / alanine aminotransferase (alt/sgpt) + systemic / clinical chemistry / ….
Where [17] appears, read: systemic / pathology microscopic / liver / basophilic focus.
[18] abbreviates: systemic / pathology microscopic / skeletal muscle / atrophy.
The mark [19] stands for this setting: systemic / pathology microscopic / skeletal muscle / atrophy + systemic / in life observation / body weight / body weight + systemic / in ….
[20] abbreviates: group: offspring, developmental / developmental landmark / eye opening / eye opening + developmental / developmental landmark / pinna unfolding / pinna ….
[21] abbreviates: group: parental, systemic / in life observation / clinical signs / salivation.
Where [22] appears, read: group: reproductive, reproductive / offspring survival early / litter size / litter size.
Setting [23] is: systemic / in life observation / body weight / body weight + systemic / in life observation / clinical signs / abnormal movements + systemic….
The mark [24] stands for this setting: systemic / pathology microscopic / skeletal muscle / degeneration.
[25] abbreviates: systemic / pathology microscopic / skeletal muscle / degeneration + systemic / in life observation / body weight / body weight + systemic / ….
Where [26] appears, read: systemic / in life observation / body weight / body weight + systemic / in life observation / clinical signs / emesis.
Setting [27] is: systemic / in life observation / water consumption / water consumption + systemic / organ weight / kidney / relative to body weight + ….
Where [28] appears, read: systemic / organ weight / spleen / absolute + systemic / pathology microscopic / liver / hypertrophy.
Where [29] appears, read: systemic / organ weight / liver / absolute + systemic / organ weight / liver / relative to body weight + systemic / pathology microscopic / ….
Where [30] appears, read: systemic / pathology microscopic / liver / adenoma + systemic / pathology microscopic / liver / hepatocellular carcinoma + systemic / organ ….
Where [31] appears, read: group: offspring, systemic / in life observation / body weight / offspring (pup) weight + systemic / in life observation / body weight / offspring (pup) ….
Setting [32] is: group: parental, systemic / organ weight / liver / absolute + systemic / organ weight / liver / relative to body weight.
Where [33] appears, read: systemic / pathology microscopic / liver / hypertrophy + systemic / pathology microscopic / testes / hypertrophy.
Where [34] appears, read: systemic / pathology microscopic / liver / hypertrophy + systemic / pathology microscopic / testes / hypertrophy + systemic / clinical ….
The mark [35] stands for this setting: systemic / clinical chemistry / thyroid stimulating hormone (thyrotropin) (tsh) / thyroid stimulating hormone (=thyrotropin) (tsh).
The mark [36] stands for this setting: systemic / organ weight / adrenal gland / nos + systemic / organ weight / kidney / absolute + systemic / organ weight / kidney / relative to….
[37] abbreviates: systemic / pathology microscopic / adrenal gland / pigmentation.
Where [38] appears, read: systemic / clinical chemistry / alderin epoxidase / alderin epoxidase + systemic / clinical chemistry / ethoxycoumarin deethylase / ….
The mark [39] stands for this setting: systemic / organ weight / adrenal gland / relative to body weight + systemic / pathology microscopic / adrenal gland / vacuolization ….

As usually defined, the LOAEL is the lowest tested level that showed an adverse finding. For orientation: NOAEL means the highest tested level that showed no adverse finding. For `O=C(NC(=O)c1c(F)cccc1F)Nc1cc(Cl)c(F)c(Cl)c1F` [Teflubenzuron], in the data set with rat [1], the LEL is 81.6 mg/kg/day, the LOAEL turned out to be 81.6 mg/kg/day, the NEL is 8 mg/kg/day and the NOAEL is 8 mg/kg/day. In the data set with rat [2] (setting [16]), the lowest-observed-adverse-effect level (LOAEL) turned out to be 26 mg/kg/day and the NOAEL came out at 5.1 mg/kg/day. Besides, in the data set with rat [2] (setting [17]), the LEL turned out to be 1.3 mg/kg/day and the NEL is under 1.3 mg/kg/day.
Turning to `[Na+].[O-]n1ccccc1=S` [Sodium pyrithione], the LEL in the data set with rat [3] (setting [18]) came out at 2 mg/kg/day; in the data set on rat [4] (setting [20]), 3.5 mg/kg/day; in the data set on rat [4] (setting [21]), 0.5 mg/kg/day; in the data set on rat [4] (group: reproductive, reproductive / offspring survival early / litter size / litter size + reproductive / reproductive performance / fertility / fertility + …), 3.5 mg/kg/day; in the data set on mouse [5] (setting [23]) it was 2 mg/kg/day; with rat [6] (systemic / pathology microscopic / skeletal muscle / atrophy + systemic / pathology gross / skeletal muscle / reduced size) it was 15 mg/kg/day. For the same molecule, the LEL is 1.5 mg/kg/day with rat [7] (setting [24]) and 5 mg/kg/day with primate (setting [26]). Further, the LOAEL with rat [3] (setting [18]) stood at 2 mg/kg/day; with rat [4] (setting [20]), 3.5 mg/kg/day; with rat [4] (group: parental, systemic / pathology microscopic / skeletal muscle / atrophy), 1.5 mg/kg/day; with rat [4] (setting [22]), 3.5 mg/kg/day; with mouse [5] (systemic / in life observation / mortality / mortality + systemic / pathology microscopic / liver / hypertrophy), 20 mg/kg/day; with rat [6] (setting [18]), 15 mg/kg/day. The lowest observed adverse effect level (LOAEL) in the data set with rat [7] (setting [24]) turned out to be 1.5 mg/kg/day; in the data set on primate (setting [26]), 25 mg/kg/day. Further, the NEL in the data set on rat [3] (setting [19]) is 0.5 mg/kg/day; with rat [4] (setting [20]), 1.5 mg/kg/day; with rat [4] (setting [21]) it was under 0.5 mg/kg/day; in the data set with rat [4] (setting [22]), 1.5 mg/kg/day; in the data set with mouse [5] (setting [23]) it was under 2 mg/kg/day; in the data set with rat [6] (setting [19]), 5 mg/kg/day. Besides, the values for the NEL in the data set with rat [7] (setting [25]) and in the data set on primate (setting [26]) were 0.5 mg/kg/day and under 5 mg/kg/day, respectively. The NOAEL came to 0.5 mg/kg/day in the data set with rat [3] (setting [19]); 1.5 mg/kg/day with rat [4] (setting [20]); 0.5 mg/kg/day in the data set on rat [4] (group: parental, systemic / pathology microscopic / skeletal muscle / atrophy + systemic / in life observation / body weight / body weight + systemic / in …); 1.5 mg/kg/day in the data set on rat [4] (setting [22]); 2 mg/kg/day with mouse [5] (systemic / in life observation / mortality / mortality + systemic / pathology microscopic / lymph node / lymphoma malignant + systemic / in …); 5 mg/kg/day in the data set with rat [6] (setting [19]). The figures for the NOAEL in the data set on rat [7] (setting [25]) and with primate (systemic / in life observation / body weight / body weight + systemic / in life observation / clinical signs / emesis + systemic / in life …) were 0.5 mg/kg/day and 5 mg/kg/day, respectively.
On to `O=C([O-])C(Cl)(Cl)Cl.[Na+]` [Sodium trichloroacetate], for which, in the data set on rat [8] (setting [27]), the LOAEL is over 355 mg/kg/day and the NOAEL was at least 355 mg/kg/day. In the data set on rat [8] (setting [28]), the LEL was 4.1 mg/kg/day and the NEL was under 4.1 mg/kg/day. For the same molecule, in the data set with mouse [9] (setting [29]), the LOAEL was over 267 mg/kg/day and the NOAEL was at least 267 mg/kg/day. Further, in the data set on mouse [9] (setting [30]), the LEL came to 133 mg/kg/day and the NEL was under 133 mg/kg/day.
For `CCC(C)(C)C(=O)OC1=C(c2ccc(Cl)cc2Cl)C(=O)OC12CCCCC2` [Spirodiclofen], the LEL came to 30.2 mg/kg/day in the data set on rat [10] (setting [31]); 5.2 mg/kg/day with rat [10] (setting [32]); 164 mg/kg/day with mouse [11] (setting [33]); 8.1 mg/kg/day in the data set on rat [12] (setting [35]); 4.33 mg/kg/day in the data set with dog [13]; 5.1 mg/kg/day in the data set on mouse [14] (setting [37]). Also, the LEL in the data set on dog [15] (setting [38]) turned out to be 7.7 mg/kg/day. Further, the LOAEL in the data set with rat [10] (setting [31]) worked out at 30.2 mg/kg/day; in the data set with rat [10] (group: parental, systemic / in life observation / body weight / body weight + systemic / organ weight / liver / absolute) it was 26.2 mg/kg/day; in the data set on mouse [11] (setting [33]), 164 mg/kg/day; in the data set on rat [12] (systemic / pathology microscopic / adrenal gland / vacuolization cytoplasmic), 47.1 mg/kg/day; with dog [13] it was 4.33 mg/kg/day; in the data set with mouse [14] (setting [36]) it was 610 mg/kg/day. In addition, the LOAEL with dog [15] (setting [39]) came out at 8.4 mg/kg/day. Besides, the NEL is 6.4 mg/kg/day with rat [10] (setting [31]); under 5.2 mg/kg/day in the data set on rat [10] (setting [32]); 15 mg/kg/day in the data set on mouse [11] (setting [34]); under 8.1 mg/kg/day in the data set with rat [12] (setting [35]); 1.38 mg/kg/day in the data set on dog [13]; under 5.1 mg/kg/day with mouse [14] (setting [37]). Further, the NEL in the data set on dog [15] (setting [38]) is under 7.7 mg/kg/day. For the same molecule, the NOAEL with rat [10] (setting [31]) turned out to be 6.4 mg/kg/day; in the data set with rat [10] (group: parental, systemic / in life observation / body weight / body weight + systemic / organ weight / liver / absolute + systemic / in life observation / …), 5.2 mg/kg/day; with mouse [11] (setting [34]) it was 15 mg/kg/day; in the data set with rat [12] (systemic / pathology microscopic / adrenal gland / vacuolization cytoplasmic + systemic / clinical chemistry / alanine aminotransferase (alt…), 8.1 mg/kg/day; in the data set with dog [13], 1.38 mg/kg/day; in the data set on mouse [14] (setting [36]), 4.1 mg/kg/day. For the same molecule, the no-observed-adverse-effect level (NOAEL) in the data set with dog [15] (setting [39]) is under 8.4 mg/kg/day.
